According to article PMC10901353, “Identification of a potent and selective LAPTc inhibitor by RapidFire-Mass Spectrometry, with antichagasic activity” (PLOS Neglected Tropical Diseases, 2024):
“And” between values parts separate entries of the source, which are not always exact repeats. Identical values can stand only once. Like-named read-outs stand apart in the source and are kept apart here.

Key:
[1] = system: PfA-M17 (M17 LAP from Plasmodium falciparum); conditions: cited from earlier work
[2] = Cytotoxicity assay on human HepG2 cells (resazurin); type: cell-based; conditions: human, 72 h
HepG2 cells = experiment: as above; type: cell-based; conditions: for Max Effect (HepG2) / pEC50 (HepG2): individual replicates
[3] = biological target: T1, LAPTc (acidic M17 leucyl-aminopeptidase from T. cruzi) (Trypanosoma cruzi, UniProt V5BWE3); experiment: Dose-response studies for LAPTc inhibition by RapidFire-MS; type: biochemical; conditions: for Emax: read-out: Maximum Effect; for Hit Confirmation: whether primary screen hit confirmed in potency experiment
T1 sequence (V5BWE3 entry or part of it): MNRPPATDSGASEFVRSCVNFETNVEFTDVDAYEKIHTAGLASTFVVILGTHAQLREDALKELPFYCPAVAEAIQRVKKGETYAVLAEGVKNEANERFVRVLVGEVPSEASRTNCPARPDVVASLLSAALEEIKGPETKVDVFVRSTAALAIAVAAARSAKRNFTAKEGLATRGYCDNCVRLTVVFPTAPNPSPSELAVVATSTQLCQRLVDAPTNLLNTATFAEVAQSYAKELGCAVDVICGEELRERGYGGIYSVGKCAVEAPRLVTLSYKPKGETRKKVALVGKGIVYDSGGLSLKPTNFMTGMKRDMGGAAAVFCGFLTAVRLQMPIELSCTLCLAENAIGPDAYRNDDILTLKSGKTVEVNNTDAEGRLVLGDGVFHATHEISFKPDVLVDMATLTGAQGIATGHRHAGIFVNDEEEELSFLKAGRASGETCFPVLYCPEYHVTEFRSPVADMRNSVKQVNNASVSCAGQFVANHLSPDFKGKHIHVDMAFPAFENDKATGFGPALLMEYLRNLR
Experimental: (§1) This assay was previously described. The assay was performed in 384-well clear F-bottom polypropylene plates with a final reaction volume of 15 μL. The reaction mixture contained 7.5 μL LAPTc in 50 mM Tris-HCl, pH 7.5, 0.005% NP-40 and 7.5 μL LSTVIVR peptide substrate (Cambridge Research Biochemicals, Billingham, UK) in the same buffer was added to start the reaction. The reaction was performed at room temperature for 40 min and then stopped with 85 μL 1% formic acid containing 0.15 mg/mL STVIVR* internal standard (Cambridge Research Biochemicals, Billingham, UK).
To generate half-maximum inhibitory concentration (IC50) data for LAPTc, 10-point dose-response curves with 100 μM as highest concentration and 1:2 dilution in DMSO (0.195–100 μM range) were prepared in 384 well plates. All other experimental conditions were as described above. All IC50 curve fitting was performed by four-parameter logistic dose-response curve fit using ActivityBase XE (IDBS). At least three replicates were generated for each hit compound.

[4] = Cytotoxicity against infected Vero host cells in T. cruzi intracellular assay; type: cell-based, African green monkey; parameters: Max Effect (Vero): unit not given here; conditions: African green monkey, infected Vero host cells, 96 h, read-out: pCC50 (Vero) +/- StDev (converted)
Experimental: (§2) Briefly, these cells were maintained at 37°C and 5% CO2 in MEM supplemented with 10% FCS, sub-culturing every 2–3 days at a ratio of 1:5 after 5 min treatment with Trypsin-EDTA (Gibco).
(§3) This assay was performed as described with the only modification that treatment was 96 h instead of 72 h. Briefly, Vero cells were infected overnight with tissue culture derived T. cruzi trypomastigotes in T225 tissue culture flasks (MOI 5). Any remaining free trypomastigotes were washed away with serum free MEM and the infected Vero cells were harvested by trypsinisation. Compounds (250 nL in DMSO) were dispensed using LabCyte ECHO (Beckman Coulter Life Sciences, USA) into each well of Corning black flat bottomed 384-well plates (Corning, USA). […] The infected Vero cells were then plated into the plates containing the compounds, at 4,000 cells per well in MEM media with 1% FCS. […] The plates were imaged on a Perkin Elmer Operetta high-content imaging system using a 20× objective. Images were analyzed using the Columbus system (Perkin Elmer). The algorithm first identified the Vero nuclei followed by demarcation of the cytoplasm and identification of intracellular amastigotes. This algorithm reported percent infected Vero cell and total number of Vero cells. All potency determinations were carried out in at least three independent replicates and are reported as pEC50 +/- standard deviation. pEC50 = -log(EC50[M]).

Vero cells = experiment: as above; type: cell-based, African green monkey; parameters: Max Effect (Vero): unit not given here; conditions: for Max Effect (Vero) / pEC50 (Vero): individual replicates
Experimental: as §2, §3

[5] = system: intracellular T. cruzi amastigotes; experiment: T. cruzi intracellular assay (high-content imaging, infected Vero cells); type: cell-based, Trypanosoma cruzi; parameters: Max Effect (T. cruzi): unit not given here; conditions: for EC50 / Emax: Trypanosoma cruzi, Vero; for Emax: read-out: Max Effect (T. cruzi)
Experimental: T. cruzi parasite, TcI strain Silvio X10/7 subclone A1 [34] was maintained in culture as previously described. Parasites were maintained as amastigotes by passaging on a weekly basis in Vero cells. Culture maintenance infections were carried out at an MOI (multiplicity of infection) of 1.5.
This assay was performed as described with the only modification that treatment was 96 h instead of 72 h. Briefly, Vero cells were infected overnight with tissue culture derived T. cruzi trypomastigotes in T225 tissue culture flasks (MOI 5). Any remaining free trypomastigotes were washed away with serum free MEM and the infected Vero cells were harvested by trypsinisation. Compounds (250 nL in DMSO) were dispensed using LabCyte ECHO (Beckman Coulter Life Sciences, USA) into each well of Corning black flat bottomed 384-well plates (Corning, USA). […] The infected Vero cells were then plated into the plates containing the compounds, at 4,000 cells per well in MEM media with 1% FCS. After 96 h incubation at 37°C in presence of 5% CO2, the plates were fixed with 4% formaldehyde for 20 min at room temperature and stained with 5 μg/mL Hoechst 33342. The plates were imaged on a Perkin Elmer Operetta high-content imaging system using a 20× objective. Images were analyzed using the Columbus system (Perkin Elmer). The algorithm first identified the Vero nuclei followed by demarcation of the cytoplasm and identification of intracellular amastigotes. This algorithm reported percent infected Vero cell and total number of Vero cells. All potency determinations were carried out in at least three independent replicates and are reported as pEC50 +/- standard deviation. pEC50 = -log(EC50[M]).

[6] = biological target: T1, LAPTc (acidic M17 leucyl-aminopeptidase from T. cruzi); experiment: High-throughput single point screening for LAPTc inhibitors by RapidFire-MS; type: biochemical; conditions: primary screen, 30 μM, single replicate; read-out: Percent Inhibition
Experimental: as §1
Single point screening of a library of 3329 compounds was performed in 384-well clear plates (Greiner 781101) at room temperature. Test compounds (45 nL in DMSO) were transferred to assay plates by an ECHO 550 acoustic dispenser (Labcyte). LAPTc was tested at 3 nM with 150 μM (approximately the value of the apparent Michaelis-Menten constant -appKM- [16]) LSTVIVR peptide substrate in a 40 min reaction. Before addition of substrate, LAPTc was preincubated with 45 nL compounds or DMSO for 15 min. Compounds, dissolved in DMSO, were tested at 30 μM. Controls without compound (the same volume of DMSO, 0% inhibitory effect) and without enzyme and compound (100% inhibitory effect) were prepared. The experiment was performed without replicates. The remaining experimental conditions were maintained as previously described. Data were processed and analysed through ActivityBase XE (IDBS). The selection criterion for hits in this single point screen was percent inhibition larger than the mean plus three standard deviations. All primary screening data are available in ChEMBL (see Data Availability statement).

[7] = system: intracellular T. cruzi amastigotes; parameters: method as in PMID 30001347; conditions: reported previously in this assay ref 33; cited from earlier work
[8] = HepG2 cells, two independent experiments, read-out: pCC50 (HepG2) (converted)
[9] = Initial hit confirmation, single replicate
[10] = Initial hit confirmation, single replicate, read-out: pIC50 (converted)
[11] = Replicate data generation, individual replicates
[12] = Replicate data generation, individual replicates, read-out: pIC50 (converted)
[13] = average of four independent replicates, read-out: pIC50 +/- StDev (LAPTc) (converted)
[14] = Vero cells infected with T. cruzi
[15] = 96 h, four independent experiments, read-out: pEC50 (T. cruzi) +/- StDev (converted)
[16] = individual replicates, read-out: pEC50 (T. cruzi) (converted)

| Structure (SMILES) | Ki [1] [µM] | Max Effect (HepG2) (HepG2 cells) | pEC50 (HepG2) (HepG2 cells) | Hill Slope [3, 9] | Emax [3, 9] [%] | IC50 [3, 10] [µM] | Hill Slope [3, 11] | Emax [3, 11] [%] | IC50 [3, 12] | IC50 [3, 13] [µM] | Hit Confirmation [3] | Max Effect (Vero) (Vero cells) | pEC50 (Vero) (Vero cells) | Max Effect (T. cruzi) ([5]; individual replicates) | inhibition at 30 µM [6] [%] | further results |
| --- | --- | --- | --- | --- | --- | --- | --- | --- | --- | --- | --- | --- | --- | --- | --- | --- |
| NC(CCc1ccccc1)P(=O)(O)CC(Cc1ccccc1)C(=O)O (stereo not shown) [Co4] | 0.013 |  |  |  |  |  |  |  |  |  |  |  |  |  |  |  |
| O=C(NO)C(NC(=O)C12CC3CC(CC(C3)C1)C2)c1ccc(-c2cc(F)c(F)c(F)c2)cc1 (stereo not shown) [Compound 6k] | 0.0289 |  |  |  |  |  |  |  |  |  |  |  |  |  |  |  |
| CC(C)(C)C(=O)NC(C(=O)NO)c1ccc(-c2cc(F)c(F)c(F)c2)cc1 (stereo not shown) [Compound 10o] | 0.06 |  |  |  |  |  |  |  |  |  |  |  |  |  |  |  |
| c1ccc(Cc2ccc(OCCn3ccnc3)cc2)cc1 [Compound 13] |  | 81 and 82 | 4.4 | 1.3 | 77 | 31.6 | 0.9 and 1.3 and 1.5 | 67 | 31.6 µM and 15.8 µM | 21.9 | confirmed | 95 and 94 and 89 and 87 | 5.3 and 5.4 and 5.2 | 97 and 84 and 87 | 41 | CC50 at 72 h [2, 8]: 43.7 µM; CC50 at 72 h ([2]; HepG2 cells, read-out: CC50 (HepG2)): 43 µM; Selectivity window based on the HepG2 data (HepG2 cells; T. cruzi vs HepG2): 20 fold; Maximum Effect [3, 11]: 74%; CC50 at 96 h [4, 14]: 5.01 µM; Selectivity index (fold window Tc/Vero) (Vero cells): 2.3 fold; EC50 [5, 15]: 2.14 µM; EC50 ([5]; 96 h, read-out: EC50 (T. cruzi amastigotes)): 2 µM; Emax ([5]; individual replicates): 94%; EC50 [5, 16]: 1.58 µM; pEC50 (T. cruzi) ([5]; individual replicates): 5.6 and 5.7 |
| CC(C)(C)C(=O)NC(C(=O)NO)c1ccc(-n2cccn2)cc1 (stereo not shown) [Compound 13d] | 0.028 |  |  |  |  |  |  |  |  |  |  |  |  |  |  |  |
| N#CC(=Cc1cn(Cc2ccc(C(=O)O)o2)c2ccccc12)c1nc2ccccc2[nH]1 [Compound 15] |  | 2.23 and 3 | < 4.0 | 1.5 | 92 | 12.6 | 1.7 and 1.4 and 1.5 | 88 | 25.1 µM and 31.6 µM | 22.9 | confirmed | 63 and 36 and 65 and 66 | 4.4 and < 4.3 and 4.5 and 4.3 | 19 and 38 | 39 | CC50 at 72 h ([2]; two independent experiments, read-out: pCC50 (HepG2) (converted)): > 100 µM; Maximum Effect [3, 11]: 87%; CC50 at 96 h [4]: 38 µM; EC50 ([5]; 96 h, read-out: pEC50 (T. cruzi) +/- StDev (converted)): > 50.1 µM; Emax ([5]; individual replicates): 24%; EC50 [5, 16]: > 50.1 µM |
| CCCS(=O)(=O)c1ccc(NS(=O)(=O)c2sc3ccc(Cl)cc3c2C)cc1 [Compound 24] |  | -2 and -0.697 | < 4.0 | 2.4 | 96 | 31.6 | 2.4 and 2.3 and 2.6 | 99 | 12.6 µM and 15.8 µM | 17.8 | confirmed | 92 and 90 and 88 and 91 | 4.9 and 5.0 | 100 and 75 and 105 and 84 | 29 | CC50 at 72 h [2, 8]: > 100 µM; CC50 at 96 h [4, 14]: 11.5 µM; EC50 [5, 15]: 14.8 µM; pEC50 (T. cruzi) ([5]; individual replicates): 4.8 and 4.7 and 5.1 |
| NC(=O)C1Cc2ccccc2CN1C(=O)Cc1cn2ccsc2n1 (stereo not shown) [Compound 28] |  | 2.59 and 4.33 | < 4.0 | 0.9 | 87 | 10 | 1.5 and 1.4 | 73 | 39.8 µM and 50.1 µM | 30.2 | confirmed | 32 and 37 and 15 and 16 | < 4.3 | 21 and 20 and 35 | 27 | CC50 at 72 h [2, 8]: > 100 µM; Maximum Effect [3, 11]: 72% and 74%; CC50 at 96 h [4, 14]: > 50.1 µM; EC50 [5, 15]: > 50.1 µM; Emax ([5]; individual replicates): 27%; EC50 [5, 16]: > 50.1 µM |
| O=C(Cn1ccnc1[N+](=O)[O-])NCc1ccccc1 [benznidazole] |  |  |  |  |  |  |  |  |  |  |  |  |  |  |  | EC50 [7]: 2 µM; pEC50 (T. cruzi) [7]: 5.7 |
| CC(C)C[C@H](NC(=O)[C@@H](O)[C@H](N)Cc1ccccc1)C(=O)O [bestatin, reference compound] | 0.025 |  |  |  |  |  |  |  |  | 0.24 |  |  |  |  |  |  |
| CC1CS(=O)(=O)CCN1/N=C/c1ccc([N+](=O)[O-])o1 (stereo not shown) [nifurtimox] |  |  |  |  |  |  |  |  |  |  |  |  |  |  |  | EC50 [7]: 0.8 µM; pEC50 (T. cruzi) [7]: 6.1 |
| CC(C)C[C@@H](NC(=O)[C@H](O)[C@@H](N)Cc1ccc([N+](=O)[O-])cc1)C(=O)O [nitrobestatin] | 0.0027 |  |  |  |  |  |  |  |  |  |  |  |  |  |  |  |
